Assay results reported in PubChem BioAssay AID1963449 (Molecular Pharmacology Branch, DTP, NCI, 2024).
Values joined by “and” are separate entries in the source; they are usually repeats but may differ in a detail not shown here. Equal values may be shown once.

Tested on: 596521-263-R-J1-PDC complex spheroid growth
Assay: Anticancer human tumor 596521-263-R-J1-PDC patient-derived soft tissue sarcoma cell line growth inhibition [Asc]
Conditions: for viability, T/C: stronger effect = lower value
Method in brief: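 Stromal components (HUVEC and hMSC) are co-assembled with the cancer cells into multicellular spheroids. Drugs are then added singly or paired, at concentrations falling by half-log increments from a clinically achievable maximum, capped at 10 microM without known Cmax.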
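Note: spheroids exposed to compounds for 7 days.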

Structure (SMILES): NC1CCC(NC2CC2c2ccccc2)CC1 (stereo unspecified) + Cc1c(S(C)(=O)=O)c(-c2cc(F)cc(N3CCN(c4ccc(NS(=O)(=O)c5ccc(NC(CCN6CCC(C(=O)OCCCP(=O)(O)O)CC6)CSc6ccccc6)c(S(=O)(=O)C(F)(F)F)c5)cc4)CC3)c2)c(-c2ccc(Cl)cc2)n1C(C)C
- IC50 (curve of first compound, second compound 0.0316 µM): > 100 nM
- IC50 (curve of first compound, second compound 0.1 µM): > 100 nM
- IC50 (curve of first compound, second compound 0.316 µM): > 100 nM
- IC50 (curve of first compound, second compound 1 µM): > 100 nM
- IC50 (curve of first compound, second compound 3.16 µM): > 100 nM
- IC50 (curve of first compound, second compound 10 µM): < 0.316 nM
- viability, T/C (second compound 0.0316 µM, first compound 0.000316 µM): 79.8%
- viability, T/C (second compound 0.0316 µM, first compound 0.001 µM): 88.9%
- viability, T/C (second compound 0.0316 µM, first compound 0.00316 µM): 80.2%
- viability, T/C (second compound 0.0316 µM, first compound 0.01 µM): 90.4%
- viability, T/C (second compound 0.0316 µM, first compound 0.0316 µM): 89.2%
- viability, T/C (second compound 0.0316 µM, first compound 0.1 µM): 80.6%
- viability, T/C (second compound 0.1 µM, first compound 0.000316 µM): 86.7%
- viability, T/C (second compound 0.1 µM, first compound 0.001 µM): 91.8%
- viability, T/C (second compound 0.1 µM, first compound 0.00316 µM): 77.5%
- viability, T/C (second compound 0.1 µM, first compound 0.01 µM): 89.7%
- viability, T/C (second compound 0.1 µM, first compound 0.0316 µM): 86.5%
- viability, T/C (second compound 0.1 µM, first compound 0.1 µM): 80.8%
- viability, T/C (second compound 0.316 µM, first compound 0.000316 µM): 84.1%
- viability, T/C (second compound 0.316 µM, first compound 0.001 µM): 77.6%
- viability, T/C (second compound 0.316 µM, first compound 0.00316 µM): 75.9%
- viability, T/C (second compound 0.316 µM, first compound 0.01 µM): 77.9%
- viability, T/C (second compound 0.316 µM, first compound 0.0316 µM): 76.7%
- viability, T/C (second compound 0.316 µM, first compound 0.1 µM): 75.7%
- viability, T/C (second compound 1 µM, first compound 0.000316 µM): 81.2%
- viability, T/C (second compound 1 µM, first compound 0.001 µM): 75.8%
- viability, T/C (second compound 1 µM, first compound 0.00316 µM): 66.3%
- viability, T/C (second compound 1 µM, first compound 0.01 µM): 72.7%
- viability, T/C (second compound 1 µM, first compound 0.0316 µM): 68.7%
- viability, T/C (second compound 1 µM, first compound 0.1 µM): 74.1%
- viability, T/C (second compound 3.16 µM, first compound 0.000316 µM): 69.1%
- viability, T/C (second compound 3.16 µM, first compound 0.001 µM): 55.7%
- viability, T/C (second compound 3.16 µM, first compound 0.00316 µM): 51.9%
- viability, T/C (second compound 3.16 µM, first compound 0.01 µM): 58.9%
- viability, T/C (second compound 3.16 µM, first compound 0.0316 µM): 55.4%
- viability, T/C (second compound 3.16 µM, first compound 0.1 µM): 53.4%
- viability, T/C (second compound 10 µM, first compound 0.000316 µM): 48.6%
- viability, T/C (second compound 10 µM, first compound 0.001 µM): 42.9%
- viability, T/C (second compound 10 µM, first compound 0.00316 µM): 44.2%
- viability, T/C (second compound 10 µM, first compound 0.01 µM): 49%
- viability, T/C (second compound 10 µM, first compound 0.0316 µM): 35.7%
- viability, T/C (second compound 10 µM, first compound 0.1 µM): 43%

Structure (SMILES): O=C(c1cc(Cc2n[nH]c(=O)c3ccccc23)ccc1F)N1CCN(C(=O)C2CC2)CC1
- viability, T/C (compound 0.0316 µM): 102% and 103% and 85.9%
- viability, T/C (compound 0.1 µM): 101% (2×) and 93.1%
- viability, T/C (compound 0.316 µM): 94.2% and 92.7% and 111%
- viability, T/C (compound 1 µM): 90.9% and 103% and 93.6%
- viability, T/C (compound 3.16 µM): 89.6% and 92.4% and 71.7%
- viability, T/C (compound 10 µM): 59.9% and 61.9% and 50.4%
- IC50 (curve of compound): > 10000 nM

Structure (SMILES): NC1CCC(NC2CC2c2ccccc2)CC1 (stereo unspecified) + CCN1C(C(=O)NC23CCC(C(=O)O)(CC2)CC3)C(c2cccc(Cl)c2F)C2(C(=O)Nc3cc(Cl)ccc32)C12CCCCC2
- IC50 (curve of first compound, second compound 0.00949 µM): > 100 nM
- IC50 (curve of first compound, second compound 0.03 µM): > 100 nM
- IC50 (curve of first compound, second compound 0.0949 µM): > 100 nM
- IC50 (curve of first compound, second compound 0.3 µM): > 100 nM
- IC50 (curve of first compound, second compound 0.949 µM): > 100 nM
- IC50 (curve of first compound, second compound 3 µM): > 100 nM
- viability, T/C (second compound 0.00949 µM, first compound 0.000316 µM): 98.8%
- viability, T/C (second compound 0.00949 µM, first compound 0.001 µM): 78.1%
- viability, T/C (second compound 0.00949 µM, first compound 0.00316 µM): 84.2%
- viability, T/C (second compound 0.00949 µM, first compound 0.01 µM): 88.9%
- viability, T/C (second compound 0.00949 µM, first compound 0.0316 µM): 83.7%
- viability, T/C (second compound 0.00949 µM, first compound 0.1 µM): 105%
- viability, T/C (second compound 0.03 µM, first compound 0.000316 µM): 84.2%
- viability, T/C (second compound 0.03 µM, first compound 0.001 µM): 85.3%
- viability, T/C (second compound 0.03 µM, first compound 0.00316 µM): 89.6%
- viability, T/C (second compound 0.03 µM, first compound 0.01 µM): 87.6%
- viability, T/C (second compound 0.03 µM, first compound 0.0316 µM): 82.5%
- viability, T/C (second compound 0.03 µM, first compound 0.1 µM): 88.7%
- viability, T/C (second compound 0.0949 µM, first compound 0.000316 µM): 95.3%
- viability, T/C (second compound 0.0949 µM, first compound 0.001 µM): 87.9%
- viability, T/C (second compound 0.0949 µM, first compound 0.00316 µM): 85%
- viability, T/C (second compound 0.0949 µM, first compound 0.01 µM): 84.5%
- viability, T/C (second compound 0.0949 µM, first compound 0.0316 µM): 89.1%
- viability, T/C (second compound 0.0949 µM, first compound 0.1 µM): 81.4%
- viability, T/C (second compound 0.3 µM, first compound 0.000316 µM): 87.7%
- viability, T/C (second compound 0.3 µM, first compound 0.001 µM): 87.7%
- viability, T/C (second compound 0.3 µM, first compound 0.00316 µM): 80.7%
- viability, T/C (second compound 0.3 µM, first compound 0.01 µM): 94.1%
- viability, T/C (second compound 0.3 µM, first compound 0.0316 µM): 85.4%
- viability, T/C (second compound 0.3 µM, first compound 0.1 µM): 87.8%
- viability, T/C (second compound 0.949 µM, first compound 0.000316 µM): 94.7%
- viability, T/C (second compound 0.949 µM, first compound 0.001 µM): 87.2%
- viability, T/C (second compound 0.949 µM, first compound 0.00316 µM): 87.9%
- viability, T/C (second compound 0.949 µM, first compound 0.01 µM): 97.3%
- viability, T/C (second compound 0.949 µM, first compound 0.0316 µM): 92.8%
- viability, T/C (second compound 0.949 µM, first compound 0.1 µM): 82.5%
- viability, T/C (second compound 3 µM, first compound 0.000316 µM): 80.9%
- viability, T/C (second compound 3 µM, first compound 0.001 µM): 83.2%
- viability, T/C (second compound 3 µM, first compound 0.00316 µM): 85.2%
- viability, T/C (second compound 3 µM, first compound 0.01 µM): 71%
- viability, T/C (second compound 3 µM, first compound 0.0316 µM): 75.9%
- viability, T/C (second compound 3 µM, first compound 0.1 µM): 82.7%
